Test results: patent EP0532759A1, “NOVEL ALLYL ALCOHOL DERIVATIVE” (TSUMURA & CO., priority 1991, dated 1992)
Like-named read-outs stand apart in the source and are kept apart here. Marks after values point to notes of the source that are not given here.

Columns and labels:
[1] = system: microvascular endothelial cells derived from human caul; assay: Proliferation and migration of microvascular endothelial cells (Boyden chamber, EGF); assay type: cell-based; conditions: Endothelial cell, 10 µM/ml compound, 10 ng/ml EGF, cells that came out into the lower chamber, read-out: percentage inhibition
Protocol: 5 x 10⁴ microvascular endothelial cells derived from human caul were placed in an upper chamber of a Boyden chamber, and 10 ng/ml of EGF was added as a control to a lower chamber separated from the upper chamber by means of a filter having a pore size of 5 µm (a polycarbonate filter manufactured by Nucleobore). 10 ng/ml of EGF and 10 µM/ml of the compound of the present invention were added to the drug administration group . The number of cells which had come out into the lower chamber was measured in terms of cells per HPF […].

[2] = system: rat; assay: Analgesic activity test (Randall-Selitto method, Brewer's yeast); assay type: in vivo
Protocol: Experimental was made with "Randall-Selitto" analgesic effect measuring apparatus (manufactured by Ugo Basile in Italy), pressure was applied through a pressure terminal, and the pressure (g) applied at the time showing a wriggling motion in rat was measured as a threshold value for pain. The threshold value for pain was measured for each leg, and rats showing substantially the same degree of threshold value for pain were selected and used for the experiment. A 20 % aqueous Brewer's yeast solution was subcutaneously administered in an amount of 0.1 ml to the right hind paw of the rat, and the threshold value for pain was measured on both legs 30 min and 60 min after the administration of the aqueous solution. At the same time, a suspension of the compound of the present invention in a 2 % polysorbate 80 physiological saline (prepared by dissolving the compound of the present invention in polysorbate 80 in an amount of 2 % of the whole amount of the solution and gradually adding and mixing physiological saline therewith) was intravenously and orally administered, and the threshold value for pain of both legs was measured 15 min, 30 min, 60 min, 90 min and 120 min after the administration. The measurements were compared with the control group, and an increase in the threshold value for pain was regarded as an evidence for the analgesic activity.

[3] = system: balb/c 3T3 cells; assay: Inhibition of EGF-accelerated fibroblast growth (3H-thymidine incorporation); assay type: cell-based; conditions: 0.5 µg per hole compound, 50 pg per hole mouse EGF
Protocol: A culture solution (hereinafter referred to as "CS DMEM") containing 10 % calf serum adjusted in such a manner that fibroblast (balb/c 3T3 cells) was contained in a concentration of 2.5 x 10⁴ cells per 0.5 ml was incubated on a 24-hole plate in an amount of 1 ml per hole. After the fibroblast was saturated in a monolayer state, cultivation was conducted at 37°C for 12 hr in 1% CS DMEM instead of the above medium through the use of 5 % CO₂. 0.5 µg per hole of the compound of the present invention and 50 pg per hole of mouse EGF were added thereto, and the cultivation was further conducted for 16 hr. ³H-thymidine in an amount of 0.5 µCi/50 µl/well was added thereto, and the mixture was cultivated for 8 hr. Then, the culture solution was removed, and washing was conducted with a cooled isotonic phosphate buffer. A 5 % cold trichloroacetic acid was added thereto, and the mixture was allowed to stand for 30 min. The supernatant was removed, and the residue was dissolved in a 0.5 M sodium hydroxide solution. The solution was neutralized with 0.5 M hydrochloric acid, a scintillation cocktail was added thereto, and counting was conducted by means of a liquid scintillation counter. The radioactivity of ³H-thymidine incorporated into the cells accompanying the growth was measured to study the function of the novel allyl alcohol on the growth of the cell.

[4] = system: ICR mouse; assay: Arachidonic acid ear lobe edema inhibiting test; assay type: in vivo; conditions: 1 mg per 20 µl acetone applied to auricle; 2 mg arachidonic acid 30 min later; ear thickness after one hour; versus control
Protocol: 1 mg of the novel allyl alcohol derivative per 20 µl of acetone were applied to the auricle on the inside of the right of an ICR mouse (female, 8 - 11 weeks old). 30 min after the application, 10 µl of an acetone solution containing 2 mg of arachidonic acid was applied to the same site, and one hour after the application of the acetone solution, the thickness of the ear was measured by means of a dial thickness gauge. An equal weight of acetone was applied to the auricle on the left side, and measurement was conducted in the same manner as that described above, and […] was regarded as swelling of the ear. Further, a group wherein the solvent was applied instead of the sample was used as a control, and the ear lobe edema inhibition was determined by the following equation. [formula]

[5] = molecular target: cyclooxygenase; assay: Cyclooxygenase inhibitory activity (PGE2 formation from [1-14C] arachidonic acid); assay type: biochemical; conditions: microsome fraction of rabbit kidney medulla; 37°C, 15 min; PGE2 radioactivity; read-out: IC₅₀
Protocol: 60 ml of a 0.1 M phosphate buffer (pH: 7.5) containing 1 mM glutathione was added to 7.0 g of medulla of kidney of a rabbit, and the mixture was homogenized through the use of a polytron. The resultant homogenate was centrifuged at 9,000 x G for 20 min to obtain a microsome fraction. This fraction was dissolved in 7 ml of a 0.1 M phosphate buffer (pH: 7.5) containing 1 […] glutathione to give a cyclooxygenase enzyme preparation.
4 mM glutathione, 10 mM tryptophan, 0.25 µM hemoglobin (each in final concentration) and a phosphate buffer (pH: 7.5) were added to 15 µl of the enzyme preparation thus prepared, and [1-¹⁴C] arachidonic acid (5 x 10⁴ dpm) and the compound of the present invention were further added thereto in such a manner that the concentrations were 40 µM, 20 µM, 10 µM and 5 µM, respectively (total amount: […]). The mixture was incubated at 37°C for 15 min, and 1 N hydrochloric acid was added thereto to terminate the reaction. Prostaglandin E₂ (PGE₂) was added thereto as a carrier, and the reaction product was extracted with 2 ml of an ether. The resultant extract was concentrated and applied to thin layer chromatography (development solvent = chloroform : methanol : acetic acid = 18 : 1 : 1) to separate a product. […] The PGE₂ radioactivity was measured by means of a liquid scintillation counter.

[6] = system: platelet-rich plasma (PRP); assay: Platelet aggregation inhibition test (Born method, in vitro); assay type: cell-based; conditions: Rattus norvegicus; for inhibition at 5 µM: compound 5 µM; for inhibition at 20 µM: compound 20 µM
Protocol: Blood was collected from a rat subjected to fasting for 12 hr so that the volume of 3.8 % sodium citrate became 1/10. The collected blood was centrifuged at room temperature and 159 x G for 10 min to collect a platelet-rich plasma (PRP). The remaining blood was centrifuged at room temperature and 1800 x G for 10 min to collect PPP (platelet poor plasma). The number of platelets was measured by means of PC-603A manufactured by Erma and adjusted to 3 x 10⁸/ml with PPP. The aggregation capability was measured according to the Born method with the concentration of PRP being 0 % (PPP) and 100 % […] through the use of a 4 channel NKK HEMATRACER aggregation meter. In an in vitro test, the novel allyl alcohol derivative was added in a concentration of 5 µM or 20 µM, the mixture was pre-incubated at 37°C for 3 min. An aggregation inducer was added thereto, and the aggregation capability was measured. Adenine diphosphate (ADP), collagen, epinephrine and arachidonic acid were used as the aggregation inducer. The concentration of the aggregation inducer was 2 µM for ADP, 1 µg/ml for collagen, 400 µM for arachidonic acid and 6 µg/ml of epinephrine. The novel ally] alcohol derivative was applied to the experiment after dissolution in dimethylsulfoxide (DMSO). The final concentration of DMSO thereof was 0.4 %, the addition of DMSO alone in this concentration had no clear effect on the aggregation of the platelet.

[7] = molecular target: T1, 5-lipoxygenase (Rattus norvegicus, UniProt P12527); assay: 5-Lipoxygenase inhibitory activity (5-HETE formation, HPLC); assay type: biochemical; conditions: enzyme preparation from RBL-1 culture cells; 10 µM arachidonic acid; 37°C, 10 min; read-out: IC₅₀
T1 construct: endogenous in cells; host or cells: RBL-1 cells (sonicated, 105,000 x G supernatant)
T1 sequence (P12527 1-673): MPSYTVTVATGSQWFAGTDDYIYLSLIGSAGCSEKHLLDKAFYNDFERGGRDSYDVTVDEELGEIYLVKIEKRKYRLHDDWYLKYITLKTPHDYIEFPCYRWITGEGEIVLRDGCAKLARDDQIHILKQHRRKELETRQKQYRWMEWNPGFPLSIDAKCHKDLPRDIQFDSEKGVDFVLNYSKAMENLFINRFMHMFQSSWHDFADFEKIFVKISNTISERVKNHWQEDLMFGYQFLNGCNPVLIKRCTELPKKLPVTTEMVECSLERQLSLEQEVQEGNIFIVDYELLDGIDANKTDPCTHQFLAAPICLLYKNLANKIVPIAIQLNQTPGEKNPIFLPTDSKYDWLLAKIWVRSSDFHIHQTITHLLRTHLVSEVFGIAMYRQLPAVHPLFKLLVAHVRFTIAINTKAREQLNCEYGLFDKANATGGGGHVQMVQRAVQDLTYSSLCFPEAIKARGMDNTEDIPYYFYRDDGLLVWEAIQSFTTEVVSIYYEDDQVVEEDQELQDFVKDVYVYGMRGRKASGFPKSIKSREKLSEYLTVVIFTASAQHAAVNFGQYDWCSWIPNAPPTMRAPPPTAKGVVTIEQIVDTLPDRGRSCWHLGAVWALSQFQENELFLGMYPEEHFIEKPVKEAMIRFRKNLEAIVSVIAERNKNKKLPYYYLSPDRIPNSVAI
Protocol: RBL-1 culture cells were suspended in a 50 mM phosphate buffer (pH: 7.4) containing 1 mM ethylenediaminetetraacetic acid (EDTA) and 10 % ethylene glycol so that the concentration was 5 x 10⁶ cells/ml. The suspension was subjected to an ultrasonic treatment and centrifuged at 10,000 x G for 10 min and further at 105,000 x G for 60 min. The resultant supernatant was used as a 5-lipoxygenase enzyme preparation.
50 mM phosphate buffer, 15 mM calcium chloride, 20 µM indomethacin, 18 mM glutathione, 6 mM adenosine triphosphate (ATP), 10 µM arachidonic acid, the enzyme preparation prepared above and an ethanol solution of the compound of the present invention were placed in a test tube in such a manner that the whole quantity was 0.6 ml and the final concentration was 5 µM, 1 µM and 0.5 µM. A reaction was allowed to proceed at 37°C for 10 min. After the completion of the reaction, 1.2 ml of acetone and 100 µl of 2 N formic acid were added thereto to terminate the reaction. […] The resultant extract was concentrated and dissolved in methanol, and the content of […] in the solution was measured by means of high performance liquid chromatography [column = TSK-gel ODS-80 TM (manufactured by Tosoh Corporation); mobile phase = acetonitrile : water : acetic acid (60 : 40 : 0.02); flow rate = 1 ml/min; ultraviolet rays for detection = 235 nm]. […]

[8] = LD50 (acute toxicity); conditions: in vivo, mouse, 72 hr after administration, read-out: LD₅₀
Protocol: A suspension of the compound of the present invention in a 2 % polysorbate 80 physiological saline (prepared by dissolving the compound of the present invention in polysorbate 80 in an amount of 2 % of the whole amount of the solution and gradually adding and mixing physiological saline therewith) was intravenously and orally administered to a mouse, and 72 hr after the administration, the LD₅₀ was calculated based on whether the mouse had survived or was dead. In the calculation, the up-and-down method was used for the intravenous administration, while the Litchfield-Wilcoxon method was used for the oral administration.

[9] = 140 mg/kg, 15 min after administration, control 123
[10] = 140 mg/kg, 30 min after administration, control 115
[11] = 140 mg/kg, 60 min after administration, control 108
[12] = inducer arachidonic acid 400 µM

## CCCCC/C=C/C(O)CCc1ccc(O)c(OC)c1 (stereo not shown) [compound of the present invention]
[1]
  inhibition at 10 µM: 82%
[2]; 70 mg/kg, 15 min after administration, control 123
  Threshold value for pain (g): 153^a g
[2]; 70 mg/kg, 30 min after administration, control 115
  Threshold value for pain (g): 183^b g
[2]; 70 mg/kg, 60 min after administration, control 108
  Threshold value for pain (g): 142^a g
[2]; [9]
  Threshold value for pain (g): 190^b g
[2]; [10]
  Threshold value for pain (g): 222^b g
[2]; [11]
  Threshold value for pain (g): 210^b g
[2]; dose of 5 mg/kg, within 15 to 60 min, p < 0.05
  threshold value for pain as compared with the control group: significant increase
[3]
  growth inhibition: 72.9%
[4]
  edema inhibition: 83%
[5]
  IC50: 7.62 µM
[6]; inducer ADP 2 µM
  inhibition at 5 µM: 12%
  inhibition at 20 µM: 26%
[6]; [12]
  inhibition at 5 µM: 67%
  inhibition at 20 µM: 96%
[6]; inducer collagen 1 µg/ml
  inhibition at 5 µM: 21%
  inhibition at 20 µM: 43%
[6]; inducer epinephrine 6 µg/ml
  inhibition at 5 µM: 52%
  inhibition at 20 µM: 63%
[7]
  IC50: 0.54 µM
[8]; Intravenous, up-and-down method
  LD50 at 72 hr: 75.6 mg/kg
[8]; Oral, Litchfield-Wilcoxon method
  LD50 at 72 hr: 1340 mg/kg

## Cc1c(N(C)C)c(=O)n(-c2ccccc2)n1C [Aminopyrine, reference compound]
[2]; [9]
  Threshold value for pain (g): 190^b g
[2]; [10]
  Threshold value for pain (g): 235^b g
[2]; [11]
  Threshold value for pain (g): 212^b g
